Test system: T1, hCMG helicase
T1 construct: fork-unwinding strand displacement assay with ATP
Experiment: helicase assay (fork-unwinding; strand displacement assay)
Type: biochemical, human
Conditions: 20 uL reactions: 1 uL DMSO or drugs, 2 uL hCMG (~15 fmol enzyme), 0.5 mM ATP; RF1-134 compared to CA1 (100% inhibition); drug concentration not given
Protocol: For 20 uL reactions: 1 uL DMSO or drugs, 2 uL hCMG (~15 fmol enzyme), and 0.5 mM ATP were added. The noviose sugar (purple box; called RF1-134) was generated using synthetic chemical approaches. […] CA1 refers to coumermycin-A1.

## CO[C@H]1[C@H](OC(=O)c2ccc(C)[nH]2)[C@H](O)[C@@H](Oc2ccc3c(O)c(NC(=O)c4c[nH]c(C(=O)Nc5c(O)c6ccc(O[C@H]7OC(C)(C)[C@@H](OC)[C@H](OC(=O)c8ccc(C)[nH]8)[C@@H]7O)c(C)c6oc5=O)c4C)c(=O)oc3c2C)OC1(C)C [CA1, coumermycin-A1]
  inhibition of hCMG helicase activity: 100%

Reference: patent US20260308196A1, “HELICASE INHIBITORS” (H. LEE MOFFITT CANCER CENTER AND RESEARCH INSTITUTE, INC., priority 2023, published 2026)
